Converted amounts (≈) assume the structure as drawn.
Legend:
RBL-2H3 = assay: Antiallergic activity in DNP-BSA-stimulated rat RBL2H3 cells assessed as inhibition of anti-DNP-IgE-mediated degranulation by measuring beta-hexosaminidase activity at 20 microg/ml pre-incubated for 1 hr followed by DNP-BSA stimulation by fluorescence assay relative to control; format: functional
Staphylococcus aureus = assay: Antibacterial activity against methicillin-resistant Staphylococcus aureus incubated for 18 hrs by broth microdilution method; format: functional
HL-60 = assay: Cytotoxicity against human HL60 cells assessed as reduction in cell viability; format: functional, cell-based

| Structure (SMILES) | inhibition at 20 µg/mL (RBL-2H3) [%] | MIC (Staphylococcus aureus) [µg/mL] | IC50 (HL-60) [nM] |
| --- | --- | --- | --- |
| C[C@@H]1C[C@@H](O)[C@H](C)[C@@]12CCC1=C2C[C@@]2(C)CC[C@](C)(C(=O)O)[C@@H]12 | 18 |  |  |
| C[C@H]1[C@H](O)CC(=O)[C@]2(C)CC[C@H]3[C@@H]4[C@@](C)(CO)CC[C@]4(C)C[C@]132 | 4 |  |  |
| C[C@@H]1C=CC(=O)[C@@]2(C)CC[C@H]3[C@@]12C[C@]1(C)CCC(C)(C)[C@]31C |  | 8 (≈ 26.6 µM) |  |
| C[C@@H]1C=CC(=O)[C@@]2(C)CC[C@@H]3[C@@H]4[C@@](C)(CC[C@@]4(C)CO)C[C@@]132 | 10 |  | 38 |
| CCOC(=O)N1CCC(=C2c3ccc(Cl)cc3CCc3cccnc32)CC1 [LORATADINE] | 35 |  |  |
